We go through 23 molecules from US8546392B2, “17Beta-hydroxysteroid dehydrogenase type 1 inhibitors for the treatment of hormone-related diseases” (Universitaet des Saarlandes, priority 2008, dated 2013).

The target of this experiment is 17β-HSD1 (Homo sapiens (Human), UniProt P14061). Nature of the experiment: 17β-HSD1 test assay (recombinant protein from Sf9 insect cells, 3H-estrone/NADPH). It is filed as biochemical. The settings on record: for inhibition at 1 µM: read-out: HSD 1 μM (% inhibition of HSD1); for inhibition at 0.1 µM: read-out: HSD1 100 nM (% inhibition). How it is done: Recombinant protein obtained from Sf9 insect cells (0.1 μg/ml) is incubated with 20 mM KH2PO4, pH 7.4, 30 nM ^3H-estrone and 1 mM NADPH for 30 min at RT in the presence of the potential inhibitor in a concentration of 1 μM or 100 nM. The stock solutions of the compounds are prepared in DMSO (dimethylsulfoxide) so that the final concentration of DMSO in the sample is 1%. After the prescribed incubation time, the reaction is quenched by adding trichloroacetic acid (10% final concentration). The samples are centrifuged in microtitration plates at 400 rpm for 10 min, and the supernatants are charged on a reversed-phase HPLC equipped with a Waters Symmetrie C18 column and Waters Sentry Guard column. The isocratic HPLC run is performed at RT with a flow rate of 1 ml/min and acetonitrile/water 48:52 as the eluent. The radioactivity was measured by means of a Packard Flow Scintillation Analyzer. […]
17β-HSD1, sequence (P14061 whole entry): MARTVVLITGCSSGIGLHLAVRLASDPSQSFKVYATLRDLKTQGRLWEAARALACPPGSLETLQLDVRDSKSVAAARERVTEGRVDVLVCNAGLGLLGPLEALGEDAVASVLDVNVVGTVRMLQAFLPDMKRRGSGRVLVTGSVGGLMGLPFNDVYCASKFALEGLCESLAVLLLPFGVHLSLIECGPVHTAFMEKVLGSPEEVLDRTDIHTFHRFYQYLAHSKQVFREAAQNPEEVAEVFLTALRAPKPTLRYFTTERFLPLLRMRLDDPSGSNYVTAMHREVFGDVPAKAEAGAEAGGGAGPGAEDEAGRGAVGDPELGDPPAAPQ

For `O=C(Nc1ccccn1)c1c(O)ccc2cc(-c3cccc(O)c3)ccc12` [Compound 49, 2-Hydroxy-6-(3-hydroxyphenyl)-N-(pyridin-2-yl)-1-naphthamide], the inhibition – broadly, how much of the control response was suppressed – at 1 µM (inhibitor 1 μM) amounted to 84%. The inhibition at 0.1 µM (inhibitor 100 nM) turned out to be 37%.

Take `O=C(Nc1ncccn1)c1c(O)ccc2cc(-c3cccc(O)c3)ccc12` [Compound 50, 2-Hydroxy-6-(3-hydroxyphenyl)-N-(pyrimidin-2-yl)-1-naphthamide]: for the setting “inhibitor 1 μM”, the inhibition at 1 µM is 40%. In addition, the inhibition at 0.1 µM (inhibitor 100 nM) is below 10%.

For `O=C(c1c(O)ccc2cc(-c3cccc(O)c3)ccc12)N1CCCCC1` [Compound 51, (2-Hydroxy-6-(3-hydroxyphenyl)naphthalene-1-yl)(piperidin-1-yl)methanone], the inhibition at 1 µM (inhibitor 1 μM) worked out at 73.4%. In addition, the inhibition at 0.1 µM (inhibitor 100 nM) is 28.8%.

Take `O=C(Nc1nccs1)c1cccc(-c2c(O)ccc3cc(-c4cccc(O)c4)ccc23)c1` [Compound 71, 3-(2-Hydroxy-6-(3-hydroxyphenyl)naphthalene-1-yl)-N-(thiazol-2-yl)benzamide]: the inhibition at 1 µM (inhibitor 1 μM) was found to be 74.7%. For the same molecule, the inhibition at 0.1 µM (inhibitor 100 nM) stood at 66.4%.

For the molecule `O=S(=O)(Nc1cccc(-c2c(O)ccc3cc(-c4cccc(O)c4)ccc23)c1)c1cccc2cccnc12` [Compound 73, N-{3-[2-hydroxy-6-(3-hydroxyphenyl)-1-naphthyl]phenyl}quinoline-8-sulfonamide], the inhibition at 1 µM (inhibitor 1 μM) turned out to be 80.5%. In addition, the inhibition at 0.1 µM (inhibitor 100 nM) was determined as 71.2%.

As to `O=S(=O)(Nc1cccc(-c2c(O)ccc3cc(-c4cccc(O)c4)ccc23)c1)c1ccc(Cl)s1` [Compound 74, 5-chloro-N-{3-[2-hydroxy-6-(3-hydroxyphenyl)-1-naphthyl]-phenyl}thiophene-2-sulfonamide], the inhibition at 1 µM (inhibitor 1 μM) was 78%. Besides, the inhibition at 0.1 µM (inhibitor 100 nM) turned out to be 46.4%.

With `N#Cc1ccccc1S(=O)(=O)Nc1cccc(-c2c(O)ccc3cc(-c4cccc(O)c4)ccc23)c1` [Compound 76, 2-cyano-N-{3-[2-hydroxy-6-(3-hydroxyphenyl)-1-naphthyl]phenyl}benzenesulfonamide], the inhibition at 1 µM (inhibitor 1 μM) came out at 79.7%. Moreover, under “inhibitor 100 nM”, the inhibition at 0.1 µM was found to be 62.1%.

As for `O=[N+]([O-])c1cc(S(=O)(=O)Nc2cccc(-c3c(O)ccc4cc(-c5cccc(O)c5)ccc34)c2)ccc1Cl` [Compound 77, 4-chloro-N-{3-[2-hydroxy-6-(3-hydroxyphenyl)-1-naphthyl]phenyl}-3-nitrobenzenesulfonamide], the inhibition at 1 µM (inhibitor 1 μM) was determined as 79.9%. Moreover, for the setting “inhibitor 100 nM”, the inhibition at 0.1 µM was 73.2%.

With `COC(=O)c1csc(S(=O)(=O)Nc2cccc(-c3c(O)ccc4cc(-c5cccc(O)c5)ccc34)c2)c1OC` [Compound 78, methyl 5-{3-[2-hydroxy-6-(3-hydroxyphenyl)-1-naphthyl]phenylsulfamoyl}-4-methoxythiophene-3-carboxylate], under “inhibitor 1 μM”, the inhibition at 1 µM was determined as 79.2%. For the same molecule, under “inhibitor 100 nM”, the inhibition at 0.1 µM was determined as 63.7%.

With `CC(=O)Nc1ccc(S(=O)(=O)Nc2cccc(-c3c(O)ccc4cc(-c5cccc(O)c5)ccc34)c2)cc1` [Compound 79, N-(4-{3-[2-hydroxy-6-(3-hydroxyphenyl)-1-naphthyl]phenylsulfamoyl}phenyl)acetamide], for the setting “inhibitor 1 μM”, the inhibition at 1 µM was determined as 80.2%. Moreover, the inhibition at 0.1 µM (inhibitor 100 nM) came out at 73.8%.

Turning to `CSc1nccc(-c2ccc(S(=O)(=O)Nc3cccc(-c4c(O)ccc5cc(-c6cccc(O)c6)ccc45)c3)s2)n1` [Compound 80, N-{3-[2-hydroxy-6-(3-hydroxyphenyl)-1-naphthyl]phenyl}-5-[2-(methylsulfanyl)pyrimidin-4-yl]thiophene-2-sulfonamide], the inhibition at 1 µM (inhibitor 1 μM) turned out to be 79.4%. Further, the inhibition at 0.1 µM (inhibitor 100 nM) stood at 64.7%.

With `O=[N+]([O-])c1ccc(S(=O)(=O)Nc2cccc(-c3c(O)ccc4cc(-c5cccc(O)c5)ccc34)c2)cc1` [Compound 81, N-{3-[2-hydroxy-6-(3-hydroxyphenyl)-1-naphthyl]phenyl}-4-nitrobenzenesulfonamide], the inhibition at 1 µM (inhibitor 1 μM) stood at 82.9%. The inhibition at 0.1 µM (inhibitor 100 nM) amounted to 71.5%.

On to `O=S(=O)(Nc1cccc(-c2c(O)ccc3cc(-c4cccc(O)c4)ccc23)c1)c1ccc(Br)cc1OC(F)(F)F` [Compound 82, 4-bromo-N-{3-[2-hydroxy-6-(3-hydroxyphenyl)-1-naphthyl]phenyl}-2-(trifluoromethoxy)benzenesulfonamide], for which the inhibition at 1 µM (inhibitor 1 μM) is 78.4%. Moreover, the inhibition at 0.1 µM (inhibitor 100 nM) worked out at 40.5%.

Consider `O=[N+]([O-])c1cc(C(F)(F)F)ccc1S(=O)(=O)Nc1cccc(-c2c(O)ccc3cc(-c4cccc(O)c4)ccc23)c1` [Compound 83, 2-nitro-N-{3-[2-hydroxy-6-(3-hydroxyphenyl)-1-naphthyl]phenyl}-4-(trifluoromethyl)benzenesulfonamide], for which, where the note is “inhibitor 1 μM”, the inhibition at 1 µM was found to be 78.1%. In addition, the inhibition at 0.1 µM (inhibitor 100 nM) is 49.8%.

In the case of `O=S(=O)(Nc1cccc(-c2c(O)ccc3cc(-c4cccc(O)c4)ccc23)c1)c1cc(Br)c(Br)s1` [Compound 85, 4,5-dibromo-N-{3-[2-hydroxy-6-(3-hydroxyphenyl)-1-naphthyl]phenyl}thiophene-2-sulfonamide], the inhibition at 1 µM (inhibitor 1 μM) turned out to be 77.7%. Besides, the inhibition at 0.1 µM (inhibitor 100 nM) came out at 54.5%.

For `O=S(=O)(Nc1cccc(-c2c(O)ccc3cc(-c4cccc(O)c4)ccc23)c1)c1ccc2ncsc2c1` [Compound 86, N-{3-[2-hydroxy-6-(3-hydroxyphenyl)-1-naphthyl]-phenyl}-1,3-benzothiazole-6-sulfonamide], the inhibition at 1 µM (inhibitor 1 μM) is 80.9%. In addition, for the setting “inhibitor 100 nM”, the inhibition at 0.1 µM is 71.6%.

As for `O=S(=O)(Nc1cccc(-c2c(O)ccc3cc(-c4cccc(O)c4)ccc23)c1)c1cccs1` [Compound 87, N-{3-[2-hydroxy-6-(3-hydroxyphenyl)-1-naphthyl]phenyl}thiophene-2-sulfonamide], for the setting “inhibitor 1 μM”, the inhibition at 1 µM came out at 80.6%. In addition, the inhibition at 0.1 µM (inhibitor 100 nM) was 71.7%.

On to `O=C(NCCc1ccc(S(=O)(=O)Nc2cccc(-c3c(O)ccc4cc(-c5cccc(O)c5)ccc34)c2)cc1)C(F)(F)F` [Compound 88, 2,2,2-trifluoro-N-[2-(4-{3-[2-hydroxy-6-(3-hydroxyphenyl)-1-naphthyl]phenylsulfamoyl}phenyl)ethyl]acetamide], for which the inhibition at 1 µM (inhibitor 1 μM) was found to be 82.4%. For the same molecule, the inhibition at 0.1 µM (inhibitor 100 nM) was determined as 76.8%.

Turning to `O=S(=O)(Nc1cccc(-c2c(O)ccc3cc(-c4cccc(O)c4)ccc23)c1)c1cc(F)c(Br)cc1F` [Compound 89, 4-bromo-2,5-difluoro-N-{3-[2-hydroxy-6-(3-hydroxyphenyl)-1-naphthyl]phenyl}benzenesulfonamide], where the note is “inhibitor 1 μM”, the inhibition at 1 µM worked out at 78.2%. Where the note is “inhibitor 100 nM”, the inhibition at 0.1 µM came to 68%.

With `CS(=O)(=O)NC(=O)c1cccc(-c2c(O)ccc3cc(-c4cccc(O)c4)ccc23)c1` [Compound 90, 3-(2-Hydroxy-6-(3-hydroxyphenyl)naphthalene-1-yl)-N-(methylsulfonyl)-benzamide], the inhibition at 1 µM (inhibitor 1 μM) worked out at 77.3%. Where the note is “inhibitor 100 nM”, the inhibition at 0.1 µM was found to be 16.5%.

For `O=S(=O)(c1ccccc1)c1c(O)ccc2cc(-c3cccc(O)c3)ccc12` [Compound 91, 6-(3-Hydroxyphenyl)-1-(phenylsulfonyl)-2-naphthol], under “inhibitor 1 μM”, the inhibition at 1 µM worked out at 33%.

For the molecule `Cc1ccc(S(=O)(=O)c2c(O)ccc3cc(-c4cccc(O)c4)ccc23)cc1` [Compound 92], under “inhibitor 1 μM”, the inhibition at 1 µM was 75%.

Take “N-{3-[2-hydroxy-6-(3-hydroxyphenyl)-1-naphthyl]phenyl-3-nitrobenzenesulfonamide [Compound 75]”: the “HSD1 100 nM (% inhibition)” value (inhibitor 100 nM) was found to be 72.8%. For the same molecule, the “HSD 1 μM (% inhibition of HSD1)” value (inhibitor 1 μM) amounted to 78.9%.
